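Where inhibition never reached the appropriate level, the endpoint shown equals the highest concentration tested. Otherwise, values were interpolated linearly from a five-concentration, 48-hour dose response in 96-well plates. Abbreviation: GI50, concentration required for 50% inhibition of growth. TGI is the concentration that stops growth completely.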

The values below come from PubChem BioAssay (NCI).

Some test systems named below: UACC-62 melanoma; K-562 leukemia; OVCAR-5 ovarian; UO-31 renal; MALME-3M melanoma; U251 CNS; PC-3 prostate; HCT-15 colon; ACHN renal; M14 melanoma.
Common to all, as to experiment: DTP human tumour cell line panel, 48 h

Regarding `CCN(CC)CCOc1ccc(/C(=C(\C)Cc2ccc(OC)cc2)c2ccc(O)cc2)cc1`, the GI50 with UACC-62 melanoma was 1.81 µM; in the test with K-562 leukemia it was 1.37 µM; in the test on OVCAR-5 ovarian, 2.36 µM; with UO-31 renal, 1.45 µM; in the test on MALME-3M melanoma it was 1.73 µM; in the test with U251 CNS, 1.63 µM. The GI50 was 1.54 µM in the test with PC-3 prostate, 1.49 µM in the test on HCT-15 colon and 1.66 µM in the test on ACHN renal. For the same molecule, the TGI in the test on UACC-62 melanoma was 3.32 µM; in the test with K-562 leukemia, 3.99 µM; in the test with OVCAR-5 ovarian, 6.79 µM; with UO-31 renal, 2.8 µM; in the test on MALME-3M melanoma it was 3.28 µM; in the test on U251 CNS, 3.09 µM. In addition, the concentration for total growth inhibition (TGI) in the test on PC-3 prostate amounted to 3.26 µM; in the test with HCT-15 colon, 3 µM; in the test on ACHN renal it was 3.1 µM.
For the molecule `CCCCNC(=O)CC1=C(C)/C(=C/c2[nH]c(-c3ccc[nH]3)cc2OC)N=C1C`, the GI50 in the test with OVCAR-5 ovarian was 3.19 µM; in the test with UO-31 renal, 1.9 µM; in the test on MALME-3M melanoma, 2.28 µM; with U251 CNS, 2.86 µM; in the test on M14 melanoma, 1.83 µM; with PC-3 prostate, 2.36 µM. Besides, the GI50 was 1.88 µM in the test on HCT-15 colon and 2.26 µM in the test with ACHN renal. The TGI amounted to 34.1 µM in the test on OVCAR-5 ovarian; 4 µM with UO-31 renal; 5.43 µM in the test with MALME-3M melanoma; 12.1 µM with U251 CNS; 3.91 µM in the test with M14 melanoma; 14.5 µM with PC-3 prostate. The concentration for total growth inhibition (TGI) in the test on HCT-15 colon was found to be 4.12 µM; in the test on ACHN renal it was 5.64 µM.
For the molecule `COc1cc(C2C=C(C)N=C3SC=C(C)N32)cc(OC)c1OC` (stereo not given), the GI50 with UACC-62 melanoma was 0.473 µM; in the test with OVCAR-5 ovarian it was 1.55 µM; in the test with UO-31 renal, 1.13 µM; in the test on U251 CNS, 0.671 µM; in the test with M14 melanoma, 1.13 µM; with PC-3 prostate, 1.56 µM. Moreover, the GI50 is 0.246 µM in the test on HCT-15 colon and 0.618 µM in the test on ACHN renal. The TGI in the test on UACC-62 melanoma is 1.87 µM; in the test on OVCAR-5 ovarian it was 3.83 µM; in the test with UO-31 renal, 2.47 µM; in the test with U251 CNS, 2.79 µM; in the test with M14 melanoma it was 2.89 µM; in the test on PC-3 prostate it was 5.88 µM. For the same molecule, the TGI with HCT-15 colon was 0.822 µM; with ACHN renal, 3.61 µM.
Regarding `COC1(OC)CCC2(C)OC(c3ccccc3)C1O2` (stereo not given), the TGI with UACC-62 melanoma, in the test with K-562 leukemia, in the test with OVCAR-5 ovarian, with UO-31 renal, in the test with MALME-3M melanoma and in the test with U251 CNS was more than 100 µM each time. Also, the TGI with M14 melanoma, with HCT-15 colon and in the test on ACHN renal was more than 100 µM each time.
For the molecule `CS(=O)(=O)ON1C(=O)c2ccc(N)cc2C1=O`, the TGI with UACC-62 melanoma, with K-562 leukemia, in the test with OVCAR-5 ovarian, in the test with UO-31 renal, in the test with MALME-3M melanoma and in the test with U251 CNS was more than 100 µM in each case. Further, the TGI in the test on M14 melanoma, with HCT-15 colon and with ACHN renal was more than 100 µM in each case.
With `Oc1ccc(/C=N/NC(=S)Nc2ccccc2)nc1`, the GI50 is 1.55 µM in the test with UACC-62 melanoma; 3.72 µM in the test with K-562 leukemia; 7.09 µM in the test with OVCAR-5 ovarian; 0.661 µM in the test on UO-31 renal; 2.19 µM in the test on MALME-3M melanoma; 0.65 µM in the test with U251 CNS. The figures for the GI50 with PC-3 prostate, in the test with HCT-15 colon and with ACHN renal were 0.706 µM, 0.407 µM and 0.552 µM, respectively. Also, the TGI in the test on UACC-62 melanoma was 4.95 µM; with K-562 leukemia it was more than 100 µM; with OVCAR-5 ovarian it was more than 100 µM; in the test with UO-31 renal, 16.8 µM; in the test on MALME-3M melanoma, 30.6 µM; in the test with U251 CNS it was 81.8 µM. The TGI in the test with PC-3 prostate, in the test on HCT-15 colon and with ACHN renal was more than 100 µM throughout.
Turning to `C/C(=C\CNc1ncnc2c1ncn2C1CCCCO1)COP(=O)(O)O` (stereo not given), the TGI in the test on UACC-62 melanoma, in the test with K-562 leukemia, in the test with OVCAR-5 ovarian, in the test on UO-31 renal, in the test on MALME-3M melanoma and in the test on U251 CNS was more than 100 µM throughout. The TGI in the test with M14 melanoma, with HCT-15 colon and with ACHN renal was more than 100 µM each time.
Turning to `COC(=O)C1=C(C)N(NC(N)=O)C2(N)N(NC(N)=O)C(C)=C(C(=O)OC)C12C#N` (stereo not given), the total growth inhibition concentration (TGI) in the test on UACC-62 melanoma, with K-562 leukemia, with OVCAR-5 ovarian, in the test with UO-31 renal, with MALME-3M melanoma and in the test on U251 CNS was more than 100 µM each time. The TGI with M14 melanoma, in the test on HCT-15 colon and with ACHN renal was more than 100 µM in each case.
For `CC(C)(C)c1cc(Cc2ccc(S(C)(=O)=O)cc2)c(O)c(C(C)(C)C)c1`, the TGI in the test with UACC-62 melanoma was found to be 26 µM; in the test with K-562 leukemia, 31.6 µM; in the test with OVCAR-5 ovarian it was 27.4 µM; with UO-31 renal, 29.6 µM; in the test with MALME-3M melanoma, 32.7 µM; in the test on U251 CNS it was 28.7 µM. Also, the values for the TGI in the test with M14 melanoma, in the test on HCT-15 colon and in the test on ACHN renal were 28.9 µM, 31 µM and 26.6 µM, respectively.
Consider `CN(C)CC1CCCC/C1=N\OC(=O)c1ccccc1` (stereo not given), for which the TGI in the test with UACC-62 melanoma, in the test with K-562 leukemia, in the test with OVCAR-5 ovarian, in the test with UO-31 renal, with MALME-3M melanoma and in the test with U251 CNS was more than 100 µM each time. Moreover, the total growth inhibition concentration (TGI) with M14 melanoma, in the test on HCT-15 colon and in the test on ACHN renal was more than 100 µM in each case.
Consider `CC(C)(Oc1cccc(N2CCC[C@@H](C(=O)N(Cc3ccc(-c4cn[nH]c4)cc3)C3CC3)C2)c1)C(=O)N1CCNCC1`, for which the GI50 in the test with K-562 leukemia is 3.5 µM; in the test with OVCAR-5 ovarian, 16.6 µM; with UO-31 renal, 12.1 µM; with MALME-3M melanoma, 11.8 µM; in the test on U251 CNS, 12.6 µM; in the test on M14 melanoma, 14.9 µM. In addition, the figures for the GI50 in the test on PC-3 prostate, with HCT-15 colon and in the test with ACHN renal were 13.6 µM, 14.6 µM and 16.1 µM, respectively. For the same molecule, the TGI in the test on K-562 leukemia is 18.4 µM; in the test on OVCAR-5 ovarian it was 32.2 µM; in the test on UO-31 renal, 26.8 µM; with MALME-3M melanoma, 24.5 µM; with U251 CNS, 26.3 µM; in the test with M14 melanoma it was 30.1 µM. Also, the total growth inhibition concentration (TGI) with PC-3 prostate worked out at 39.1 µM; in the test with HCT-15 colon it was 28.9 µM; in the test with ACHN renal it was 29.6 µM.
